According to US4031231A, “Antibacterial composition comprising 3-fluoro-D-alanine or deutero analog in combination with auto-antagonist inhibitor” (priority 1976, dated 1977):
In brackets after ≈: the same amount, converted by molar mass. Read-outs that look alike come from different tables or passages of the source.

How the values were obtained:
[1] = Release of cycloserine or methyl-cycloserine in vivo when administered clinically; conditions: for effectiveness in releasing cycloserine or methyl-cycloserine in vivo: administered clinically, substantially avoiding dimerization
[2] = Stability in aqueous solution; format: physicochemical
[3] = tested on: Escherichia coli (Strain 2017); assay: Growth inhibition (complete repression of growth) of Escherichia coli culture; format: cell-based; conditions: for concentration of FDA-autoantagonist-inhibitor at which growth is completely repressed in combination with 3-fluoro-D-alanine / inhibitor-effective concentration as percentage of its own minimum effective antibacterial concentration: combined with 3-fluoro-D-alanine at 50 μg/ml
Procedure: When the 3-fluoro-D-alanine, at this concentration of 50 μg/ml, is combined with an FDA-autoantagonist-inhibitor, such as cycloserine at concentrations of only 0.39 μg/ml, terizidone at 0.8 μg/ml, D-4-(1'-methyl-3'-oxo-1'-butenyl)amino-3-isoxazolidinone or its sodium salt at 0.72 μg/ml, or D-cis-cyclothreonine at approximately 2 μg/ml, growth of the Escherichia coli is completely repressed.

[4] = tested on: Escherichia coli (Strain 2017); assay: as above; format: cell-based; conditions: for MIC: Escherichia coli, read-out: minimum concentration for complete inhibition (repression) of growth
Serratia species 3374 = assay: Protection of mice infected with Serratia species 3374 (ED50); format: in vivo, Serratia species 3374; female C.D.1 mice; conditions: 3 LD50; subcutaneous at 0, 2, 4 hours; 50% protected for 7 days
Procedure: (§1) Female C.D.1 mice of average weight 21.0 g. are injected intraperitoneally with 0.5 ml. of an appropriate dilution of a 16-hour broth culture containing the indicated pathogen. (The severity of the infectious challenge is represented in each case as the multiple of the dilution of the broth culture which is lethal for only 50% of the untreated population, i.e. No. LD50.) Appropriate dosages of 3-fluoro-D-alanine(FDA) and D-cycloserine, individually, and combinations of these two components in a fixed ration of 1:1 are administered in 0.5 ml volume subcutaneously on the dorsal surface, promptly at the time of the injection, and at 2 hour and 4 hour intervals thereafter. The results of these tests, which are expressed as the ED50 dose, which is the statistically interpolated dose required to protect 50% of the infected population for a period of 7 days following challenge and treatment, are as follows: […]

Escherichia coli 2017 = assay: Survival of mice infected with Escherichia coli 2017; format: in vivo, Escherichia coli 2017; female C.D.1 mice; conditions: for number of survivors in each group of five infected mice: subcutaneous, 3 LD50
Procedure: Groups of five female C.D.1 mice of average weight 21.0 g are injected intraperitoneally with 0.5 ml of a diluted broth culture of Escherichia coli 2017 representing 3 LD50 of bacterial pathogens. The indicated dosages of 3-fluoro-D-alanine (FDA) and D-cycloserine are then promptly administered in a 0.5 ml volume by the subcutaneous route on the dorsal surface.
Across the top row of the tabulation are listed the number of mice surviving (in each group of five infected mice) for the indicated doses (mg) of 3-fluoro-D-alanine alone; in the first vertical column are listed the number surviving for the indicated doses (mg) of cycloserine alone; and in the second vertical column are listed the number of mice surviving for combination doses of 5.0 mg of 3-fluoro-D-alanine and the indicated amount (mg) of cycloserine.

[5] = tested on: Staphylococcus aureus 2949; assay: Protection of mice infected with Staphylococcus aureus 2949 (ED50); format: in vivo, Staphylococcus aureus 2949; female C.D.1 mice; conditions: 30 LD50; subcutaneous at 0, 2, 4 hours; 50% protected for 7 days
Procedure: as §1

[6] = individual component alone, E. coli Strain 2017

effectiveness in releasing cycloserine or methyl-cycloserine in vivo [1]	stability in aqueous solution [2]	SMILES	concentration of FDA-autoantagonist-inhibitor at which growth is completely repressed in combination with 3-fluoro-D-alanine [3]	inhibitor-effective concentration as percentage of its own minimum effective antibacterial concentration [3]	MIC [4, 6] [µg/mL]	ED50, individual components (Serratia species 3374) [mg/dose]	ED50, individual components [5] [mg/dose]	further results
extremely effective	remarkably stable in aqueous solution	CC(=O)C(C)=C(C)N[C@@H]1CONC1=O [D-4-(1',2'-dimethyl-3'-oxo-1'-butenyl)amino-3-isoxazolidinone]	–	–	–	–	–	–
extremely effective	remarkably stable in aqueous solution	CC(=O)C=C(C)N[C@@H]1CONC1=O [D-4-(1'-methyl-3'-oxo-1'-butenyl)amino-3-isoxazolidinone]	0.72 µg/mL	–	–	–	–	effectiveness in releasing cycloserine in the blood stream and in the bladder ([1]; blood stream, bladder): of particular effectiveness
–	–	C[C@@H]1ONC(=O)[C@@H]1N [D-cis-cyclothreonine]	approximately 2 μg/ml	less than 2%	–	–	–	–
–	–	N[C@H](CF)C(=O)O [FDA, 3-fluoro-D-alanine]	–	–	3.12 (≈ 29.1 µM)	1.7	0.801	growth of the organism at higher concentration (autoantagonist action) ([4]; 3-fluoro-D-alanine alone at 50 μg/ml): extensive growth; survival (Escherichia coli 2017; 1.25 mg dose of 3-fluoro-D-alanine alone): 80%; survival (Escherichia coli 2017; 5.0 mg dose of 3-fluoro-D-alanine alone (autoantagonism)): 20%; number of survivors in each group of five infected mice (Escherichia coli 2017; FDA alone 0.078 mg): 0 mice; number of survivors in each group of five infected mice (Escherichia coli 2017; FDA alone 0.312 mg): 3 mice; number of survivors in each group of five infected mice (Escherichia coli 2017; FDA alone 1.25 mg): 4 mice; number of survivors in each group of five infected mice (Escherichia coli 2017; FDA alone 5.0 mg): 1 mice; MIC ([3]; Escherichia coli, read-out: concentration at which growth is completely repressed): 3.2 µg/mL (≈ 29.9 µM)
–	–	N[C@@H]1CON=C1O [cycloserine, D-4-amino-3-isoxazolidinone, reference compound]	0.39 µg/mL	less than 2%	25 (≈ 245 µM)	2.5	0.400	minimum concentration for complete inhibition (repression) of growth [4, 6]: 25 µg/mL; suppression of the autoantagonism shown by 3-fluoro-D-alanine (Escherichia coli 2017; 0.156 mg of cycloserine with 5.0 mg of 3-fluoro-D-alanine): completely suppresses the autoantagonism; number of survivors in each group of five infected mice (Escherichia coli 2017; D-cycloserine alone 0.078 mg): 0 mice; number of survivors in each group of five infected mice (Escherichia coli 2017; D-cycloserine alone 0.312 mg): 0 mice; number of survivors in each group of five infected mice (Escherichia coli 2017; D-cycloserine alone 1.25 mg): 3 mice; number of survivors in each group of five infected mice (Escherichia coli 2017; D-cycloserine alone 5.0 mg): 5 mice; protection (Escherichia coli 2017; cycloserine alone, 0.156 mg): zero protection
–	–	O=C1NOCC1/N=C/c1ccc(/C=N/C2CONC2=O)cc1 (stereo not drawn) [terizidone]	0.8 µg/mL	less than 2%	–	–	–	–
